pIC50, pKi: −log10 of the molar value.
How the values were obtained:
[1] = molecular target: ALK I1171N/D1203N (Homo sapiens (Human), UniProt Q9UM73, D1203N/I1171N); assay: Biochemical kinase assay, ALK I1171N/D1203N; settings: apparent inhibitory constant, kinase domain, Morrison equation; read-out: ALK-I1171N-D1203N Ki^app
Method: (§1) First, 250 nL of compound dissolved in DMSO (100-fold of the desired concentration) was dispensed into a 384-well plate. A 12.5 μL substrate solution containing ATP (2 mM) and fluorogenic phosphorylation substrate AQT0101 ([…] for ALK and ROS, AssayQuant) or AQT0104 (26 μM for TRKB, AssayQuant) in buffer (50 mM HEPES pH 7.5, […], 0.5 mM EGTA, 10 mM MgCl2) was added and mixed thoroughly. Then, a 12.5 μL kinase solution containing ALK (1.5 nM, Carna, 08-518), ALK I1171N/D1203N (4 nM, SignalChem, custom-made), ROS1 (0.6 nM, Carma, 08-163), ROS1-G2032R (0.5 nM, SignalChem, R14-121BG), or TRKB-wt (1.5 nM, SignalChem, N17-11G) kinase domains in buffer ([…] pH 7.5, 0.01% Brij-[…], 0.4 mg/mL BSA, 0.5 mM EGTA, and 10 mM MgCl2) was added and mixed thoroughly. The plate was sealed and read by SpectraMax Paradigm at λ=485 nm every 2 minutes for 120 minutes at 30° C. Initial rates of reaction (v) were calculated from the change in fluorescence intensity over time during the initial, linear portion of the reaction. Finally, apparent inhibitory constants (Ki^app) were determined from regression of v and I (inhibitor concentration) to Morrison Equation (E=enzyme concentration): […]
(§2) Compound potency can be interpreted by binning Ki^app values against the targets: bin A for high potency, Ki^app<50 nM; bin B for medium potency, 50 nM≤Ki^app<500 nM; and bin C for low potency, Ki^app≥500 nM. […] “nd” means not determined.

[2] = molecular target: Ba/F3 EML4-ALK v1 I1171N/D1203N (Homo sapiens (Human), UniProt Q9HC35+Q9UM73, D1203N/I1171N); assay: Ba/F3 cell proliferation assay, EML4-ALK v1 I1171N/D1203N; assay type: cell-based; settings: for pIC50: Ba/F3 stable cells, 72 hours, CellTiter-Glo; for ETV6-TRKB / EML4-ALK v1 I1171N/D1203N: TRKB selectivity, ratio of Ba/F3 IC50 values
Summary of the method: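 Ba/F3 cells made IL-3-independent by retroviral EML4-ALK v1 I1171N/D1203N and selected with puromycin, then treated with 3-fold compound dilutions for 72 h. Viability by CellTiter-Glo luminescence; IC50 from four-parameter logistic fit.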

[3] = molecular target: Ba/F3 ETV6-TRKB (Homo sapiens, UniProt Q16620); assay: Ba/F3 cell proliferation assay, ETV6-TRKB; assay type: cell-based; settings: Ba/F3 stable cells, 72 hours, CellTiter-Glo; read-out: ETV6-TRKB IC50
Summary of the method: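 Ba/F3 cells retrovirally transduced with ETV6-TRKB and selected for IL-3-independent growth with puromycin were treated with 3-fold compound dilutions for 72 h. Viability read by CellTiter-Glo luminescence; IC50 from percent inhibition by four-parameter logistic fit.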

[4] = molecular target: TRKB-wt (Homo sapiens (Human), UniProt Q16620); assay: Biochemical kinase assay, TRKB-wt; settings: apparent inhibitory constant, kinase domain, Morrison equation; read-out: TRKB-wt Ki^app
Method: as §1, §2

Sequence of ALK I1171N/D1203N (Q9UM73 1116-1392 I1171N/D1203N): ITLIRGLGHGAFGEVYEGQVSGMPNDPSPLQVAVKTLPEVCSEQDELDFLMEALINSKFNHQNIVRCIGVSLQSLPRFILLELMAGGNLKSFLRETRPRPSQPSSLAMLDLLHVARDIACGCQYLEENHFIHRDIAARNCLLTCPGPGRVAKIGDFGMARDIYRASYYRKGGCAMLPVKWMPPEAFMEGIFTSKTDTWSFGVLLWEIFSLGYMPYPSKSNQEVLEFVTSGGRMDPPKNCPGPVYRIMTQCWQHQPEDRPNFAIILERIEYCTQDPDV
Sequence of Ba/F3 ETV6-TRKB (Q16620 32-822 limits assumed, change not shown): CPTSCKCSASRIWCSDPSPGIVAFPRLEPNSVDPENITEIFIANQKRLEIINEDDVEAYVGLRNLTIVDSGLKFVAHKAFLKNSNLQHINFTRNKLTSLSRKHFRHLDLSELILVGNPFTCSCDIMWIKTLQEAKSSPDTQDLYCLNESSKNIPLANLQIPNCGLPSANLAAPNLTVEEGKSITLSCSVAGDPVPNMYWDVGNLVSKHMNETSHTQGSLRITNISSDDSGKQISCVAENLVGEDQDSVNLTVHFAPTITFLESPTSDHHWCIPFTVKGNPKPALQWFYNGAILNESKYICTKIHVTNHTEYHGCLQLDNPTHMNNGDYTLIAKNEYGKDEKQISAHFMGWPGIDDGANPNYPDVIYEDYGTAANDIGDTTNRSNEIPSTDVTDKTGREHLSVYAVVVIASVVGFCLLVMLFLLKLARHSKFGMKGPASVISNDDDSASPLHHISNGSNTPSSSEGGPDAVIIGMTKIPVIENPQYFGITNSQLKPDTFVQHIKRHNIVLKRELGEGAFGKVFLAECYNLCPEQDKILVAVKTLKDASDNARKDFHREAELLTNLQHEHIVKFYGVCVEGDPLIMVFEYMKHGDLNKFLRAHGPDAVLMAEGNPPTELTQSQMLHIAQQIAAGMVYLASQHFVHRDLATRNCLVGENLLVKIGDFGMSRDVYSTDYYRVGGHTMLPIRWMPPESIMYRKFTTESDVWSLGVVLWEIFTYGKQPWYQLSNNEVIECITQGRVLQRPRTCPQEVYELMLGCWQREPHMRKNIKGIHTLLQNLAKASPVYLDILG
Sequence of TRKB-wt (Q16620 538-807): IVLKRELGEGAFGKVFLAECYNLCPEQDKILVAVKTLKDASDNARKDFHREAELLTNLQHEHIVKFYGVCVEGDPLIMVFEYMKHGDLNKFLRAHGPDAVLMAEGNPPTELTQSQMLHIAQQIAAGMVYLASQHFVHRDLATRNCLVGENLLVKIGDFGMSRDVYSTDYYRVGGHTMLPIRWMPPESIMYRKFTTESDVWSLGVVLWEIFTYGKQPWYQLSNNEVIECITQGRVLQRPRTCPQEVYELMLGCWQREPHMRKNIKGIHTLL
Sequence of Ba/F3 EML4-ALK v1 I1171N/D1203N (Q9UM73 other isoform, or with tags, fused parts or gaps I1171N/D1203N): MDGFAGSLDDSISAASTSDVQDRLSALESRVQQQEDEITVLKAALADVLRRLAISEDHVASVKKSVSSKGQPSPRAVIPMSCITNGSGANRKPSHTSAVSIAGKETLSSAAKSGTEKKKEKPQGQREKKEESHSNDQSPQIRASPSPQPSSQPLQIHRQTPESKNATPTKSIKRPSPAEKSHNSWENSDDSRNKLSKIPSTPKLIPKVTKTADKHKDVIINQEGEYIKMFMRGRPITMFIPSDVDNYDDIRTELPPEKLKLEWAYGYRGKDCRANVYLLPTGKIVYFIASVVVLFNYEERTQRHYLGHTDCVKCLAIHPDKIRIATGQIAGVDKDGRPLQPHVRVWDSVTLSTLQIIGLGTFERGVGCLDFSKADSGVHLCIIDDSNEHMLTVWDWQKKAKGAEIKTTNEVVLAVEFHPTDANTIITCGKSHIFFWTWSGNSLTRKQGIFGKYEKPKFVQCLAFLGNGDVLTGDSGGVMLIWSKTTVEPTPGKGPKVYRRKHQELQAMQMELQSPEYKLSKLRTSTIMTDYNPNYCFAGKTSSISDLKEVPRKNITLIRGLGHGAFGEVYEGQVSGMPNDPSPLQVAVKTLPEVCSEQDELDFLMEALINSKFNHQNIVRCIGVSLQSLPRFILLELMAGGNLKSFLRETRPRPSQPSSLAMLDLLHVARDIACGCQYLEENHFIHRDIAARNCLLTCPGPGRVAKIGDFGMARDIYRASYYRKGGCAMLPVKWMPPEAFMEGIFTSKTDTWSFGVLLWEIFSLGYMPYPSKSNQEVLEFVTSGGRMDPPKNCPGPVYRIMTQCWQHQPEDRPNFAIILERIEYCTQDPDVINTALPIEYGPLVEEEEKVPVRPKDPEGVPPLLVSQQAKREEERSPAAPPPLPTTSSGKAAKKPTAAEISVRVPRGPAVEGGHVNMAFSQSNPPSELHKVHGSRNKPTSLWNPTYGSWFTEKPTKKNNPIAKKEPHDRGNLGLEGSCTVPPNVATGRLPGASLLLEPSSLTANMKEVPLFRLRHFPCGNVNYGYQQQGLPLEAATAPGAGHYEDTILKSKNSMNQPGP

Compound | pKi [1] | pIC50 [2] | pIC50 [3] | pKi [4] | ETV6-TRKB / EML4-ALK v1 I1171N/D1203N [2]
Cc1cc2n(n1)-c1ccc(F)cc1[C@@H](C)Oc1cc(cnc1N)-c1c(c(C(=O)N(C)C)nn1CC1CC1)C2 [Example 42, N,N-dimethyl-(R)-22-amino-3-(cyclopropylmethyl)-16-fluoro-10,19-dimethyl-20-oxa-3,4,11,12,23-pentaazapentacyclo[19.3.1.0^2,^6.0^8,^12.0^13,^18]pentacosa-1(24),2(6),4,8,10,13,15,17,21(25),22-decaene-5-carboxamide] | > 7.30 | 6.30 to 7.30 | < 6.30 | ≤ 6.30 | A (bin A for very high selectivity, ratio≥30-fold)
CCOC(=O)c1nn(CC2CC2)c2c1Oc1cccnc1-c1ccc(F)cc1[C@@H](C)Oc1cc-2cnc1N [Example 55, ethyl (20R)-23-amino-3-(cyclopropylmethyl)-17-fluoro-20-methyl-7,21-dioxa-3,4,12,24-tetraazapentacyclo[20.3.1.0^2,^6.0^8,^13.0^14,^19]hexacosa-1(25),2(6),4,8(13),9,11,14,16,18,22(26),23-undecaene-5-carboxylate] | > 7.30 | 6.30 to 7.30 | < 6.30 | ≤ 6.30 | B (bin B for high selectivity, ratio≥10-fold but<30)
C[C@H]1Oc2cc(cnc2N)-c2c(c(C(=O)N(C)C3CC3)nn2CC2CC2)Cc2cn(C)nc2-c2ccc(F)cc21 [Example 40, N-cyclopropyl-N-methyl-(R)-22-amino-3-(cyclopropylmethyl)-16-fluoro-10-methyl-19-methyl-20-oxa-3,4,10,11,23-pontaazapentacyclo[19.3.1.0^2,^6.0^8,^12.0^13,^18]pentacosa-1(24),2(6),4,8,11,13,15,17,21(25),22-decaene-5-carboxamide] | > 7.30 | 6.30 to 7.30 | < 6.30 | ≤ 6.30 | A (bin A for very high selectivity, ratio≥30-fold)
C[C@H]1Oc2cc(cnc2N)-c2c(c([S+](C)[O-])nn2CC2CC2)Cc2cn(C)nc2-c2ccc(F)cc21 (stereo partly drawn) [Example 17, (R)-3-(cyclopropylmethyl)-16-fluoro-10-methyl-19-methyl-5-(methylsulfinyl)-20-oxa-3,4,10,11,23-pentaazapentacyclo[19.3.1.0^2,^6.0^8,^12.0^13,^18]pentacosa-1(24),2(6),4,8,11,13,15,17,21(25),22-decaen-22-ylamine] | > 7.30 | 6.30 to 7.30 | < 6.30 | 6.30 to 7.30 | C (bin C for moderate selectivity, ratio≥1 but<10)
C[C@H]1Oc2cc(cnc2N)-c2c(c(C(=O)N(C)C)nn2CC2CCC2)Cc2cn(C)nc2-c2ccc(F)cc21 [Example 33, (19R)-22-amino-3-(cyclobutylmcthyl)-16-fluoro-N,N,10,19-tetramethyl-20-oxa-3,4,10,11,23-pentaazapentacyclo[19.3.1.0^2,^6.0^8,^12.0^13,^18]pentacosa-1(24),2(6),4,8,11,13,15,17,21(25),22-decaene-5-carboxamide] | > 7.30 | 6.30 to 7.30 | < 6.30 | ≤ 6.30 | A (bin A for very high selectivity, ratio≥30-fold)
CC1CCCN1C(=O)c1nn(CC2CC2)c2c1Cc1cn(C)nc1-c1ccc(F)cc1[C@@H](C)Oc1cc-2cnc1N (stereo partly drawn) [Example 31, {(R)-22-amino-3-(cyclopropylmethyl)-16-fluoro-10-methyl-19-methyl-20-oxa-3,4,10,11,23-pentaazapentacyclo[19.3.1.0^2,^6.0^8,^12.0^13,^18]pentacosa-1(24),2(6),4,8,11, 13,15,17,21(25),22-decaen-5-yl}(2-methyl-1-pyrrolidinyl)methanone] | > 7.30 | 7.30 to 10.00 | < 6.30 | ≤ 6.30 | A (bin A for very high selectivity, ratio≥30-fold)
CSc1nn(CC2CC2)c2c1Cc1cn(C)nc1-c1ccc(F)cc1[C@@H](C)Oc1cc-2cnc1N [Example 56, (R)-3-(cyclopropylmethyl)-16-fluoro-10-methyl-19-methyl-5-(methylthio)-20-oxa-3,4,10,11,23-pentaazapentacyclo[19.3.1.0^2,^6.0^8,^12.0^13,^18]pentacosa-1(25),2(6),4,8,11,13,15,17,21,23-decaen-22-ylamine] | 6.30 to 7.30 | 6.30 to 7.30 | < 6.30 | ≤ 6.30 | C (bin C for moderate selectivity, ratio≥1 but<10)

Second part, led by results:

pKi [1] | pIC50 [2] | pIC50 [3] | pKi [4] | Compound | ETV6-TRKB / EML4-ALK v1 I1171N/D1203N [2]
> 7.30 | 7.30 to 10.00 | < 6.30 | ≤ 6.30 | C[C@H]1Oc2cc(cnc2N)-c2c(c(C(=O)N(C)C)nn2CC2CC2)Oc2cccnc2-c2ccc(F)cc21 [Example 39, N,N-dimethyl-(R)-23-amino-3-(cyclopropylmethyl)-17-fluoro-20-methyl-7,21-dioxa-3,4,12,24-tetraazapentacyclo[20.3.1.0^2,6.0^8,13.0^14,19]hexacosa-1(25),2(6),4,8(13),9,11,14,16,18,22(26),23-undecaene-5-carboxamide] | A (bin A for very high selectivity, ratio≥30-fold)
> 7.30 | 7.30 to 10.00 | 6.30 to 7.30 | > 7.30 | Cc1cc2n(n1)-c1ccc(F)cc1[C@@H](C)Oc1cc(cnc1N)-c1c(nn(C)c1C#N)C2=O [Example 19, (R)-22-amino-16-fluoro-4-methyl-10,19-dimethyl-7-oxo-20-oxa-4,5,11,12,23-pentaazapentacyclo[19.3.1.0^2,^6.0^8,^12.0^13,^18]pentacosa-1(24),2,5,8, 10,13,15,17,21(25),22-decaene-3-carbonitrile] | B (bin B for high selectivity, ratio≥10-fold but<30)
> 7.30 | 6.30 to 7.30 | < 6.30 | ≤ 6.30 | C[C@H]1Oc2cc(cnc2N)-c2c(c(C(=O)N(C)CC(F)(F)F)nn2CC2CC2)Cc2cn(C)nc2-c2ccc(F)cc21 [Example 36, (19R)-22-amino-3-(cyclopropylmethyl)-16-fluoro-N,10,19-trimethyl-N-(2,2,2-trifluoroethyl)-20-oxa-3,4,10,11,23-pentaazapentacyclo[19.3.1.0^2,^6.0^8,^12.0^13,^18]pentacosa-1(24),2(6),4,8,11,13,15,17,21(25),22-decaene-5-carboxamide] | A (bin A for very high selectivity, ratio≥30-fold)
6.30 to 7.30 | 6.30 to 7.30 | < 6.30 | ≤ 6.30 | C[C@H]1Oc2cc(cnc2N)-c2c(c(S(C)(=O)=O)nn2CC2CC2)Cc2cn(C)nc2-c2ccc(F)cc21 [Example 2, (R)-3-(cyclopropylmethyl)-16-fluoro-5-mesyl-10-methyl-19-methyl-20-oxa-3,4,10,11,23-pentaazapentacyclo[19.3.1.0^2,6.0^8,12.0^13,18]pentacosa-1(24),2(6),4,8,11,13,15,17,21(25),22-decaen-22-ylamine] | C (bin C for moderate selectivity, ratio≥1 but<10)
